In general, logD refers to lipophilicity at a set pH, counting ionised and neutral species. Low values mean lower lipophilicity, high ones higher lipophilicity. Broadly, the logP is a log measure of how a compound divides between an organic and an aqueous phase.

Data set [1] in a line: method code SF-RC, from DOI: 10.1016/j.nucmedbio.2009.01.009, PMID: 19423014. To be noted: pH 7.4.
The nature of data set [2]: method code SF-AS, from PMID: 7460030. The conditions noted are these: pH 7.3.
Data set [3] can be described thus: method code SF-HPLC, from DOI: 10.1016/j.ejps.2006.07.007, PMID: 16997537. To be noted: pH 7.4.
The nature of data set [4]: method code SF-HPLC, from DOI: 10.1002/jps.23140, PMID: 22499243. The conditions noted are these: pH 7.4.
Data set [5] can be described thus: method code SF-RC, from DOI: 10.1021/es60172a005, PMID: 22280000.
A short description of data set [6]: method code SF-RC, from PMID: 447850. To be noted: pH 7.4.
Data set [7] is described as follows: method code SF-AS, from PMID: 7306420. To be noted: pH 7.5.
Data set [8] is described as follows: method code SF-LC/MS, from DOI: 10.1002/rcm.3594, PMID: 18543375. The conditions noted are these: pH 7.4.
Assay in data set [9]: not given
The source holds these as a separate data set.

Assay in data set [10]: not given
The source holds these as a separate data set.

Assay in data set [11]: not given
The source holds these as a separate data set.

Assay in data set [12]: not given
The source holds these as a separate data set.

The nature of data set [13]: method code SF-AS, from DOI: 10.1081/jlc-120004751.
Data set [14] is described as follows: from Letourneux, Y.; Sparfel, L.; Roussakis, C.; Piessard, S.; LeBaut, G. (1984). Pyrophthalones. VI. Derivatives of (N-alkyldihydro-1,4-pyridinyliden-4-yl)-2-indanedione-1,3. Search for antitumor …. To be noted: pH 7.4.
A short description of data set [15]: method code SF, from DOI: 10.1002/syn.20842. The conditions noted are these: pH 7.4.
Assay in data set [16]: not given
The source holds these as a separate data set.

Assay in data set [17]: not given
This is another data set of the same source.

The nature of data set [18]: method code SF, from DOI: 10.1016/0014-2999(77)90010-3, PMID: 336381. The conditions noted are these: pH 9.8.
A short description of data set [19]: method code SF-HPLC, from DOI: 10.1016/j.jpba.2007.09.019, PMID: 17988818.
Assay in data set [20]: not given
The source holds these as a separate data set.

Data set [21] can be described thus: method code SF-AS, from DOI: 10.1016/0014-2999(72)90235-x, PMID: 4113999.
A short description of data set [22]: from Zeng, J.; Huang, T.; Li, F.; Zhu, Z.; Chen, L.; Feng, L. (2014). Determination of apparent oil-water partition coefficient and equilibrium solubility of levonorgestrel and gestodene by RP-HPLC. ….
Data set [23] is described as follows: method code SF-AS, from DOI: 10.1021/jm9807104, PMID: 10514282. The conditions noted are these: pH 7.0.
A short description of data set [24]: method code SF, from DOI: 10.1016/s0223-5234(00)80025-2, PMID: 11278041. To be noted: pH 7.4.
Assay in data set [25]: not given
The source holds these as a separate data set.

Assay in data set [26]: not given
The source holds these as a separate data set.

The nature of data set [27]: method code SF-HPLC, from DOI: 10.1016/j.ejps.2016.07.010, PMID: 27422078. To be noted: pH 7.4.
Data set [28] is described as follows: method code SF-RC, from DOI: 10.1002/jlcr.3239, PMID: 25359578. To be noted: pH 7.4.
Data set [29] is described as follows: method code SF-AS, from PMID: 7271269. To be noted: pH 6.0.
Assay in data set [30]: not given
This is another data set of the same source.

The nature of data set [31]: method code SF-AS, from DOI: 10.1021/jm300468t, PMID: 22574992. The conditions noted are these: pH 9.0.
A short description of data set [32]: method code SF-RC, from DOI: 10.1016/j.nucmedbio.2008.04.004, PMID: 18589308. To be noted: pH 7.4.
Assay in data set [33]: not given
This is another data set of the same source.

The nature of data set [34]: method code SF-RC, from DOI: 10.1016/j.nucmedbio.2013.04.008, PMID: 23731552. To be noted: pH 7.4.
The nature of data set [35]: method code SF-RC, from DOI: 10.1016/j.nucmedbio.2006.10.003, PMID: 17210465. The conditions noted are these: pH 7.4.
A short description of data set [36]: method code SF, from DOI: 10.1021/jm00169a014, PMID: 2362268. The conditions noted are these: pH 7.4.
Data set [37] is described as follows: method code SF, from PMID: 3183.
Assay in data set [38]: not given
The source holds these as a separate data set.

Data set [39] in a line: method code SF-RC, from DOI: 10.1002/jlcr.3404, PMID: 27126914. The conditions noted are these: pH 7.4.

`CCCCOc1c(OC)ccc2cc(C(=O)NC3CCCCC3)c(=O)[nH]c12` gave a log distribution coefficient (logD) in [1] of 3.9.

With `CCCCCOc1cccc(NC(=O)OC2CCCCC2)c1-n1ccnc1`, the pH-dependent lipophilicity (logD) in [2] worked out at 3.38. Regarding `CCOC(=O)C1OC(Oc2cc3oc(-c4ccc(O)cc4)cc(=O)c3c(O)c2O)C(O)C(O)C1O` (stereo not given), the log distribution coefficient (logD) in [3] worked out at 2.37. `CCCCCCCCCCCCOP1(=O)OCC(Cn2ccc(N)nc2=O)O1` (stereo not given) displayed a logD in data set [4] of 3.89. Consider `Cc1ccc2cc3c(ccc4ccccc43)c3c2c1CC3`, for which the log partition coefficient (logP) in data set [5] amounted to 6.42. `C[C@]12CCC(=O)C=C1CC[C@@H]1[C@@H]2[C@@H](O)C[C@]2(C=O)[C@@H](C(=O)CO)CC[C@@H]12` displayed a logD in [6] of 1.08.

In data set [7], `CS(=O)(=O)c1ccc2c(c1)N(CCCN1CCC(C(N)=O)CC1)c1ccccc1S2` registered a logD of 2.02.

`COc1cc2c(c(OC)c1OC)-c1ccc(OC)c(=O)cc1[C@@H](NC(C)=O)CC2`: in data set [8], the logD was found to be 1.08.

With `CN(C)Cc1ccc(CSCCNc2[nH]cc(Cc3ccccc3)c2[N+](=O)[O-])o1`, the logP was found to be 3.65.

In [9], `Oc1ccc2ccccc2c1/N=N/c1ccc(/N=N/c2ccccc2)cc1` displayed a logP of 2.11. Turning to `C=CCn1nc(-c2sc(NC(=O)C(C)(C)C)nc2C)cc1C(=O)NCc1ccccc1`, the logP in data set [10] came out at 4.33.

On to `FCCOc1ccc(CN2CCN(Cc3cc4ccccc4o3)CC2)cc1`, for which the logP in data set [11] came to 3.35.

Compound `FCCC1OC2(CCN(Cc3ccccc3)CC2)c2ccccc21` (stereo not given) yielded a logP in data set [12] of 3.58.

On to `Cc1cn(C2CC(N=[N+]=[N-])C(COC(=O)C(=O)NC(Cc3c[nH]c4ccccc34)C(=O)O)O2)c(=O)[nH]c1=O` (stereo not given), for which the log partition coefficient (logP) in [13] came out at 0.67. For the compound `CC1=CC(=C2C(=O)c3ccccc3C2=O)C=C(C)N1CCCNC(=O)N(CCCl)N=O`, the logD in [14] is 2.84.

For the compound `CCCS(=O)(=O)N1CCC(CNC(=O)c2ccc(Cl)cc2Cl)(c2cccc(F)n2)CC1`, the log distribution coefficient (logD) in data set [15] was 2.9. `COCCOC(=O)C1=C(C)NC(C)=C(C(=O)OC(C)C)C1c1cccc([N+](=O)[O-])c1` (stereo not given): the lipophilicity (logP) in data set [16] amounted to 2.82. Consider `CN1CN(c2ccccc2)C2(CCN(CCCC(=O)c3ccc(I)s3)CC2)C1=O`, for which the logP in [17] is 3.14. In data set [18], `O=c1[nH]c2ccccc2n1C1CCN(C[C@@H](O)[C@@H]2COc3ccccc3O2)CC1` (relative stereo) displayed a logD of 3.43. Compound `COc1cc(C=Cc2cc(/C=C/c3ccc(O)c(OC)c3)n[nH]2)ccc1O` came in with a logP in data set [19] of 1.78.

As to `CNC(=O)c1ccc(Oc2ccc3c(c2)CCN(C2CCC2)CC3)nc1`, the lipophilicity (logP) in data set [20] is 2.24. Take `OCCN1CCN(CCC=C2c3ccccc3Sc3ccc(Cl)cc32)CC1`: the logP in data set [21] was 3.

As for `C#C[C@]1(O)C=C[C@H]2[C@@H]3CCC4=CC(=O)CC[C@@H]4[C@H]3CC[C@@]21CC`, in [22], the logP came out at 3.45. `COC(=O)C(C)NP(=O)(Oc1cccc(C(F)(F)F)c1)OC1C=CC(n2cc(C)c(=O)[nH]c2=O)O1` (stereo not given): the logD in [23] is 1.57.

Turning to `CC(C)Cc1ccc(C(C)C(=O)OCN2C(=O)C(=O)c3ccccc32)cc1` (stereo not given), in [24], the logD was 4.23.

In turn, `COc1cc(C2c3cc4c(cc3C(O)C3COC(=O)C23)OCO4)cc(OC)c1OC` (stereo not given) gave a log partition coefficient (logP) in data set [25] of 2.01.

`COc1cccc([C@H](O)C2CCN(CCc3ccc(F)cc3)CC2)c1OC` displayed a logP in data set [26] of 3.8.

On to `Cc1cc(=O)c2c(O)cc(O)c(C3CCN(C)CC3OC(=O)c3ccccc3)c2o1` (stereo not given), for which the logD in [27] was 2.33.

In [28], `O=C(NCCF)Nc1ccc(-c2nc(N3CC4CCC(C3)O4)c3cnn(CC(F)(F)F)c3n2)cc1` gave a log distribution coefficient (logD) of 1.9. Consider `COCOC(=O)C1N2C(=O)C(N3C(=O)C(c4ccc(O)cc4)NC3(C)C)C2SC1(C)C` (stereo not given), for which the log distribution coefficient (logD) in data set [29] turned out to be 0.3.

For `CSc1nc(Nc2ccccc2)c2cnn(CCCl)c2n1`, the logP in [30] was 5.49. `Cc1c2c3cc(NC(=O)CNC(=O)CN)ccc3nc-2n(C)c2ccccc12` had a logD in data set [31] of 0.85. Regarding `O=C(OC[C@@H]1O[C@H](n2cc(Br)c(=O)[nH]c2=O)[C@H](F)[C@H]1OC(=O)c1ccccc1)c1ccccc1`, in [32], the logD was 3.95. Turning to `COc1cc2nc(N3CCN(C(=O)C4COc5ccccc5O4)CC3)nc(N)c2cc1OC` (stereo not given), the log partition coefficient (logP) in [33] amounted to 3.38. `O=C(Nc1cccnn1)N1CCC(=Cc2cccc(Oc3ccc(C(F)(F)F)cn3)c2)CC1` showed a log distribution coefficient (logD) in data set [34] of 3.48. On to `CN(C)c1ccc(/C=C/c2ccc(OCCOCCOCCF)nc2)cc1`, for which the logD in data set [35] worked out at 3.22. With `CC(=O)Oc1ccc(C(c2ccc(OC(C)=O)cc2)c2ccccn2)cc1`, in data set [36], the log distribution coefficient (logD) was found to be 2.64.

Consider `CCCCC(CC)CN1CN(CC(CC)CCCC)CC(C)(N)C1` (stereo not given), for which the log partition coefficient (logP) in [37] was found to be 2.05. In [38], `O=C1C(=O)c2ccccc2C(O)=C1C1CCC(c2ccc(Cl)cc2)CC1` (stereo not given) displayed a lipophilicity (logP) of 5.07.

Turning to `COc1ccc2c(C3=C(c4cn(C)c5ccc(I)cc45)C(=O)NC3=O)coc2c1`, in data set [39], the logD is 3.23.
